Results published in article PMC11912475 (Journal of Medicinal Chemistry, 2025).

Tests used:
[1] = biological target: GluN1-GluN2D NMDAR subtype (Homo sapiens, UniProt O15399+Q05586); assay: FLIPR/Ca2+ assay, NMDAR GluN1-GluN2D subtype in CHO cells; type: cell-based; settings: CHO cells, 10 μM L-glutamate and 10 μM glycine; n.d. = 50% of inhibition could not be reached at the highest concentration used
Method: (§1) These compounds were assessed for their effects on specific heterodimeric NMDAR subtypes stably overexpressed in Chinese Hamster Ovary (CHO) cells. The subtypes tested included GluN1-GluN2A, GluN1-GluN2B, GluN1-GluN2C, and GluN1-GluN2D. CHO cells expressing each of the four NMDAR subtypes were incubated with 10 μM L-glutamate, a concentration known to elicit maximal Ca^2+ influx, serving as the stimulus. Intracellular Ca^2+ levels were subsequently measured to determine the extent of NMDAR activation.
(§2) Assay buffer composition was 145 mM NaCl, 5 mM KCl, 2 mM CaCl2, 1 g/Liter D-(+)-glucose, and 20 mM HEPES (pH 7.3 adjusted with NaOH). Cells were plated at a density of 15.000/well in 384 black/clear bottom plates. […] Cells were kept at 30 °C in 5% CO2 incubator for 24 h. Cells were preloaded for 1 h with 2 μM Fluo-4 Ca^2+-sensitive probe, simultaneously with 2.5 mM probenecid, an inhibitor of nonspecific anion transport, and 500 μM ketamine to avoid cytotoxicity. […] Intracellular Ca^2+ level was monitored by FLIPR (excitation wavelength at 470–495 nm, emission wavelength at 515–575 nm) for 10 s before and 5 min after the addition of test items. All test items, including L-glutamate and glycine, were added simultaneously. […] FLIPR data were normalized as 100%, in the presence of 10 μM L-glutamate and 10 μM glycine, while as 0%, in the presence of assay buffer. […] Then, data were normalized by Excel 2013 (Microsoft Office) software, using wells added with 10 μM L-glutamate plus 10 μM glycine (column 23) as high control, and wells added with assay buffer only (column 24) as low control. To assess plate quality, Z′ calculations were performed in Excel. Z′ was calculated according to following equation: Z′ = 1–3(σh + σl)/|μh – μL| where μ and σ are the means and the standard deviations of the means of high (h) and low (l) controls, respectively. Compound concentration–response curves were plotted by Prism 8 GraphPad software, in the different experimental conditions (see Supporting Information). Data were analyzed using least-squares regression fitting, to fit data to a standard four parameters logistic equation using GraphPad Prism10. This regression fitting allowed the calculation of pIC50 and the corresponding SEM.

[2] = biological target: T1, Serotonin transporter SERT (Homo sapiens, UniProt P31645); assay: Radioligand displacement binding assay, [3H]paroxetine, SERT
T1 construct: host or cells: HEK-293

Serotonin 5-HT5A = biological target: T2, Serotonin 5-HT5A (Homo sapiens, UniProt P47898); assay: Radioligand displacement binding assay, [3H]LSD, 5-HT5A
T2 construct: host or cells: CHO-K1

Serotonin 5-HT2C = biological target: T3, Serotonin 5-HT2C (Homo sapiens, UniProt P28335); assay: Radioligand displacement binding assay, [3H]mesulergine, 5-HT2C
T3 construct: host or cells: CHO-K1
T3 sequence (P28335 33-458): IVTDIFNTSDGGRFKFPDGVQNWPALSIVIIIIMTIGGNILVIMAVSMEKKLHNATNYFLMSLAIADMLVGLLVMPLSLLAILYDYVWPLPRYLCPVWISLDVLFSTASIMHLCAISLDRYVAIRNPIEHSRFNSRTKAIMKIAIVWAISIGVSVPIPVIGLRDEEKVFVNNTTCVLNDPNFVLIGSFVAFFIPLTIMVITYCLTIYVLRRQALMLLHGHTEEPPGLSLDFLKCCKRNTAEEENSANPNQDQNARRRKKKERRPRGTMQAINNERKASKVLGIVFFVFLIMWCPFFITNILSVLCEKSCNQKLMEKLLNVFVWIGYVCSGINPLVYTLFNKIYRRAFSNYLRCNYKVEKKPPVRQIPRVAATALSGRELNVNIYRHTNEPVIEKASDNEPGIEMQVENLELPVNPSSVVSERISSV

Histamine H1 = biological target: T4, Histamine H1 (Homo sapiens, UniProt P35367); assay: Radioligand displacement binding assay, [3H]pyrilamine, H1
T4 construct: host or cells: CHO-K1

μ opioid receptor (MOP) = biological target: T5, μ opioid receptor (MOP) (Homo sapiens, UniProt P35372); assay: biochemical; type: binding; settings: for inhibition at 0.3 µM / inhibition at 3 µM: read-out: % inhibition of binding, MOP
T5 construct: host or cells: CHO-K1

[3] = system: Glutamate, NMDA, Phencyclidine binding site; assay: Radioligand displacement binding assay, [3H]TCP, NMDA; design: species or system Wistar rat
[4] = biological target: T6, Norepinephrine transporter NET (Homo sapiens, UniProt P23975); assay: Radioligand displacement binding assay, [125I]RTI-55, NET
T6 construct: host or cells: MDCK

Serotonin 5-HT1A = biological target: T7, Serotonin 5-HT1A (Homo sapiens, UniProt P08908); assay: Radioligand displacement binding assay, [3H]8-OH-DPAT, 5-HT1A
T7 construct: host or cells: CHO-K1
T7 sequence (P08908 1-422): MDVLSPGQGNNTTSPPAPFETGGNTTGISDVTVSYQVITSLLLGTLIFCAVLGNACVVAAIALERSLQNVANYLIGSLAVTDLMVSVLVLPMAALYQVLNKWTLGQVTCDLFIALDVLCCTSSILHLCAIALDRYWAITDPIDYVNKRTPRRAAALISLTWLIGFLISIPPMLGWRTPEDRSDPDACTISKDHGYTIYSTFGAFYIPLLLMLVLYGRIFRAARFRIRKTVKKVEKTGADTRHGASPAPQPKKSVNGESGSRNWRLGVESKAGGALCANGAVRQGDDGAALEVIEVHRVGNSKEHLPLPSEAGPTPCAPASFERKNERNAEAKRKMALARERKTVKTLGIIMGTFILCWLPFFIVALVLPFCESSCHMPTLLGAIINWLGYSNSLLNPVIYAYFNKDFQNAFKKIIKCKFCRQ

Serotonin 5-HT7 = biological target: T8, Serotonin 5-HT7 (Homo sapiens, UniProt P34969); assay: Radioligand displacement binding assay, [3H]LSD, 5-HT7
T8 construct: host or cells: CHO-K1

Sigma σ1 = biological target: T9, Sigma σ1 (Homo sapiens, UniProt Q99720); assay: Radioligand displacement binding assay, [3H]pentazocine, sigma σ1
T9 construct: Sigma σ1; Source: Human Jurkat cells; host or cells: Jurkat

[5] = biological target: GluN1-GluN2A NMDAR subtype (Homo sapiens, UniProt Q05586+Q12879); assay: FLIPR/Ca2+ assay, NMDAR GluN1-GluN2A subtype in CHO cells; type: cell-based; settings: CHO cells, 10 μM L-glutamate and 10 μM glycine; n.d. = 50% of inhibition could not be reached at the highest concentration used
Method: as §1, §2

[6] = biological target: GluN1-GluN2C NMDAR subtype (Homo sapiens, UniProt Q05586+Q14957); assay: FLIPR/Ca2+ assay, NMDAR GluN1-GluN2C subtype in CHO cells; type: cell-based; settings: CHO cells, 10 μM L-glutamate and 10 μM glycine; n.d. = 50% of inhibition could not be reached at the highest concentration used
Method: as §1, §2

Muscarinic M5 = biological target: T10, Muscarinic M5 (Homo sapiens, UniProt P08912); assay: Radioligand displacement binding assay, [3H]N-methylscopolamine, M5
T10 construct: host or cells: CHO-K1
T10 sequence (P08912 1-532): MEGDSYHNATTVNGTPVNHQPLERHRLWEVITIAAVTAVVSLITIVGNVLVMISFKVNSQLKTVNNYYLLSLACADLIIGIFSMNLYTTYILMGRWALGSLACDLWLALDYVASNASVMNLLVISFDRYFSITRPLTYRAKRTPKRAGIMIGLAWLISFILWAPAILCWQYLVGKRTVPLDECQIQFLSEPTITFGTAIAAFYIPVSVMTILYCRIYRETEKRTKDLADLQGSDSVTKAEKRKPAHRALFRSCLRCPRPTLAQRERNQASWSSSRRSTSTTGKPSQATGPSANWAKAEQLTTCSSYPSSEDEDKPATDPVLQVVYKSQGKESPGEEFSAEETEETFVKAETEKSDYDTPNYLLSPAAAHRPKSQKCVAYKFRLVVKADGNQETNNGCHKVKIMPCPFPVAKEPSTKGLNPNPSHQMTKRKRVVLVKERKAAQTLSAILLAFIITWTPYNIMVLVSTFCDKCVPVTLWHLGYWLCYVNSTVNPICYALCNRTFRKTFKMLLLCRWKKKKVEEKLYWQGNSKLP

[7] = biological target: T11, GluN1-GluN2B NMDAR subtype (Homo sapiens, UniProt Q05586+Q13224); assay: FLIPR/Ca2+ assay, NMDAR GluN1-GluN2B subtype in CHO cells; type: cell-based; settings: CHO cells, 10 μM L-glutamate and 10 μM glycine; n.d. = 50% of inhibition could not be reached at the highest concentration used
T11 construct: host or cells: NR1-2B-CHO cells, constitutive expression
Method: as §1, §2

Serotonin 5-HT2A = biological target: T12, Serotonin 5-HT2A (Homo sapiens, UniProt P28223); assay: Radioligand displacement binding assay, [3H]ketanserin, 5-HT2A
T12 construct: host or cells: CHO-K1
T12 sequence (P28223 whole entry): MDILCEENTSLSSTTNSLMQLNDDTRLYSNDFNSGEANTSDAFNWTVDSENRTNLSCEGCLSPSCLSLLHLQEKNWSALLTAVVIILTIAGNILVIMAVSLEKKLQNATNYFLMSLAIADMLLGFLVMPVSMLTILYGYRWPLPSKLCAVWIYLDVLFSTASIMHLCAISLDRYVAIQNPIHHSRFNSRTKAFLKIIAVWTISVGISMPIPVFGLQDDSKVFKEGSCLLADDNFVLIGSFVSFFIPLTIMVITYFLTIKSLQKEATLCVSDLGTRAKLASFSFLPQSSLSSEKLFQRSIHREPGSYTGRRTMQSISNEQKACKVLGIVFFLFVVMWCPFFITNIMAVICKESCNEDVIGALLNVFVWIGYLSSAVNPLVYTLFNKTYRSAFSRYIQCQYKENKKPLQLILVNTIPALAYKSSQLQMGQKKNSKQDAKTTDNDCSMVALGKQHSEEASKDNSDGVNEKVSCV

T5 sequence (P35372 whole entry): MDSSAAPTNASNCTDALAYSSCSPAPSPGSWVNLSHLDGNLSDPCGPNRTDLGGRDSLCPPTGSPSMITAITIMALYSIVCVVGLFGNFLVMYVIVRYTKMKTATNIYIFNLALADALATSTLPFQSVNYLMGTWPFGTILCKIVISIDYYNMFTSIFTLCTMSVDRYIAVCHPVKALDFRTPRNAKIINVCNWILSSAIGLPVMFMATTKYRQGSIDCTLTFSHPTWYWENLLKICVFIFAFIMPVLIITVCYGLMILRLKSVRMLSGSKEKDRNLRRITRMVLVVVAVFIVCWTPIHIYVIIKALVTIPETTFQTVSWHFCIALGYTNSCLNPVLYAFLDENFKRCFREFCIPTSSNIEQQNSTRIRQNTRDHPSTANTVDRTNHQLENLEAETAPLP
T6 sequence (P23975 whole entry): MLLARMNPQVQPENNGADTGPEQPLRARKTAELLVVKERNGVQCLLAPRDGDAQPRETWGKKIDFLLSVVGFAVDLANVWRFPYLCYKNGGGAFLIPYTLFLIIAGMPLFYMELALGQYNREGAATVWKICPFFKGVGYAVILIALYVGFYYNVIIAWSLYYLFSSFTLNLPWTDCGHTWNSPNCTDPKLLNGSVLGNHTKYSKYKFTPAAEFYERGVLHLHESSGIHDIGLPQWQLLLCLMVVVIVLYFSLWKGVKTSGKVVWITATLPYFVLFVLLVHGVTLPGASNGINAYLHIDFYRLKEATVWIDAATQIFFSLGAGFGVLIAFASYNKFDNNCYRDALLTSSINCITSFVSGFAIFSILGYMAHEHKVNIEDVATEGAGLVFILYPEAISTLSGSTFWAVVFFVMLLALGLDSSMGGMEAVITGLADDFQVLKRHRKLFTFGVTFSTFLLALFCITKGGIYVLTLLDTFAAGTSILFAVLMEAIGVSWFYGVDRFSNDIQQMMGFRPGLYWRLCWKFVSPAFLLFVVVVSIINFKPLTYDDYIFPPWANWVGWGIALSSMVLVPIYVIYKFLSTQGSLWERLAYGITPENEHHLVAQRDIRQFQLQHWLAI
T1 sequence (P31645 whole entry): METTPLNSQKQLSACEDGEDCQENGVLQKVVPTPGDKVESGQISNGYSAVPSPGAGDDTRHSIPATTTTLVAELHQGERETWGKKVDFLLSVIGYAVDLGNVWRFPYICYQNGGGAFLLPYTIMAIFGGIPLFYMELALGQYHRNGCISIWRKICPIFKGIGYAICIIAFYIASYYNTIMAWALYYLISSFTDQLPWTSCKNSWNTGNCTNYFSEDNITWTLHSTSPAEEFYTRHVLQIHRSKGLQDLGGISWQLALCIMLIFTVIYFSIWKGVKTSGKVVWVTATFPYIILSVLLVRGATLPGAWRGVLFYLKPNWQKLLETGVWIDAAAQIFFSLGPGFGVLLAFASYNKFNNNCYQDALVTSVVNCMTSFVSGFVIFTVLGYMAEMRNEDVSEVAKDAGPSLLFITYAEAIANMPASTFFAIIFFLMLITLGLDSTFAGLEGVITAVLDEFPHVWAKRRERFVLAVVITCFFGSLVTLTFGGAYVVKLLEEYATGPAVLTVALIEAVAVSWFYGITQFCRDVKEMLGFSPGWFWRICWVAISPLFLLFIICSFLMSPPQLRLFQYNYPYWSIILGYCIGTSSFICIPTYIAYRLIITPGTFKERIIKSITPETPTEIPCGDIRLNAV
T2 sequence (P47898 whole entry): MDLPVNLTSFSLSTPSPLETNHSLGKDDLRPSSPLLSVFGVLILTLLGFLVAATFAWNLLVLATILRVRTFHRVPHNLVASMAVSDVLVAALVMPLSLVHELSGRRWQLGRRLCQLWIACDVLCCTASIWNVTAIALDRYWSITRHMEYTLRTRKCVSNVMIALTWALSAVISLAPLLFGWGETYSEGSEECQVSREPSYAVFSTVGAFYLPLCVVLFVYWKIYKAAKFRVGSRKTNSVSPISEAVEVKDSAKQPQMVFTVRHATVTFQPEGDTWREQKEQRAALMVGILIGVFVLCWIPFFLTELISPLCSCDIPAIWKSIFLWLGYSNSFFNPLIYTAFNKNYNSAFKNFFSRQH
T9 sequence (Q99720 whole entry): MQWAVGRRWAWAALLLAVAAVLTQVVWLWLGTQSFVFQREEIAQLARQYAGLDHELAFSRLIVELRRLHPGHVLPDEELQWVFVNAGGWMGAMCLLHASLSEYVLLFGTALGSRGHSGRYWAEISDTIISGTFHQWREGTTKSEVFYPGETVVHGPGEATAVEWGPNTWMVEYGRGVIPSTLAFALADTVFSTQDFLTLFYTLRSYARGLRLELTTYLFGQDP
T8 sequence (P34969 whole entry): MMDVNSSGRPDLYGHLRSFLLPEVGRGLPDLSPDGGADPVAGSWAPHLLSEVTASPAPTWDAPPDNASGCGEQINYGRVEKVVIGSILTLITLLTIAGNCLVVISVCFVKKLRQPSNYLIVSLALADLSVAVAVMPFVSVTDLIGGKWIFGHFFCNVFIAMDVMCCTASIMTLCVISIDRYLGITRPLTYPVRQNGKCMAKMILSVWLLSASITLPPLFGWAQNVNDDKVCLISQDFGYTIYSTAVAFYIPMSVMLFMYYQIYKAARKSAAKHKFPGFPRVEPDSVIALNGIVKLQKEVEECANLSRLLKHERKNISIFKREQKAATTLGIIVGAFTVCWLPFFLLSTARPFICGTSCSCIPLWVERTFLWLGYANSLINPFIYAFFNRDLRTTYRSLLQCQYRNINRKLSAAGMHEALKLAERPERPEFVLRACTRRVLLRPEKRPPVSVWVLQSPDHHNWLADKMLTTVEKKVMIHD
T4 sequence (P35367 whole entry): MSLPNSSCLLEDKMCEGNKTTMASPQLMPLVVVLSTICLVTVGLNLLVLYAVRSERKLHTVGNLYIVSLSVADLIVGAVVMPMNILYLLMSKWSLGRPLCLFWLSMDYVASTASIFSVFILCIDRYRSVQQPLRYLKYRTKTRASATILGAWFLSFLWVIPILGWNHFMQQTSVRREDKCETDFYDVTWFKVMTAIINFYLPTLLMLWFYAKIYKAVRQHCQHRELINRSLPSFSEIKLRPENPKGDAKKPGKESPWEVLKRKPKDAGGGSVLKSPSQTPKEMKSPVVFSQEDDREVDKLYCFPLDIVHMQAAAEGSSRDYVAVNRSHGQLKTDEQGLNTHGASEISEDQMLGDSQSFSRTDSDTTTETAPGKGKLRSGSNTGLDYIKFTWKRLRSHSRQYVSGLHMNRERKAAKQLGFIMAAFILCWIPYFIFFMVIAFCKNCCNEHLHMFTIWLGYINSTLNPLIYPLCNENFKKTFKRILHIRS
GluN1-GluN2D NMDAR subtype, sequence (O15399 28-1336, other chains not shown): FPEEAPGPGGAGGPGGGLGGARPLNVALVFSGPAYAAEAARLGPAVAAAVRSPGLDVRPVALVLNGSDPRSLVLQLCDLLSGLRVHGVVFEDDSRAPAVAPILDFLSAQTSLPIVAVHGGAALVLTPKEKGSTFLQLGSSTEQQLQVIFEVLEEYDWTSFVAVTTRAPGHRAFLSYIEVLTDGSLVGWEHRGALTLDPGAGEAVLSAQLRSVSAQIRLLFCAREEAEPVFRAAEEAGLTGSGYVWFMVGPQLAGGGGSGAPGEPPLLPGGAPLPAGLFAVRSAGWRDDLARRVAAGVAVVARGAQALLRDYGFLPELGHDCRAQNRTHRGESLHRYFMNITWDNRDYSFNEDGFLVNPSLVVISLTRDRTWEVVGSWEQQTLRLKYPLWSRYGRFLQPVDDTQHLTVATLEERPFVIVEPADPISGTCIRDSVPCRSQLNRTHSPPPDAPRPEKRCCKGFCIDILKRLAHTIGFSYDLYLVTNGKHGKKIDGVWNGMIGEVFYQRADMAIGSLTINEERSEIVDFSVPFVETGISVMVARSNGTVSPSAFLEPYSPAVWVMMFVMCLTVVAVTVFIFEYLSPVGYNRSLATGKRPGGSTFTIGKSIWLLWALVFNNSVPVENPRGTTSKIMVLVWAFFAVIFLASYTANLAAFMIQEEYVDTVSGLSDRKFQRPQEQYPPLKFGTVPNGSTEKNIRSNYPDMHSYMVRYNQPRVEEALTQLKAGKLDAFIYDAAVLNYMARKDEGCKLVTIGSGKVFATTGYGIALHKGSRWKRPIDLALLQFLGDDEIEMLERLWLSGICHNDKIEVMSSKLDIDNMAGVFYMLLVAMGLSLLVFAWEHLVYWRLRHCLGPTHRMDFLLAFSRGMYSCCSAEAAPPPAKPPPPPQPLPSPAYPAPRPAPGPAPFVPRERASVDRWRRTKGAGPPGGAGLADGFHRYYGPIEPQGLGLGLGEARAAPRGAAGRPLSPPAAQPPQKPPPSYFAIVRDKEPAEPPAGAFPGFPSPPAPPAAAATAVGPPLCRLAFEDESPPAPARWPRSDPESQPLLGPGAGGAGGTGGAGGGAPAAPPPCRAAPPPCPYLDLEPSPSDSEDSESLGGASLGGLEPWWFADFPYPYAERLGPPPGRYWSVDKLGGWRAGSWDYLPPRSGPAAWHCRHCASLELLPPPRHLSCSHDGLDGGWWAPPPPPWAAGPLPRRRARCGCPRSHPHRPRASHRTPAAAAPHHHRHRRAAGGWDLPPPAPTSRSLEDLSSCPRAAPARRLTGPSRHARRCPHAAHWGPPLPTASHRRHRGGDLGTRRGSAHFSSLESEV

SMILES	pIC50 (mean ± SEM) GluN1-GluN2D [1]	inhibition at 1 µM [2]	inhibition at 10 µM ([2]; 10 μM)	inhibition at 1 µM (Serotonin 5-HT5A)	inhibition at 10 µM (Serotonin 5-HT5A)	inhibition at 0.3 µM (Serotonin 5-HT2C)	inhibition at 3 µM (Serotonin 5-HT2C)	inhibition at 10 µM (Histamine H1)	inhibition at 30 µM (Histamine H1)	inhibition at 0.3 µM (μ opioid receptor (MOP))	inhibition at 3 µM (μ opioid receptor (MOP))	% inhibition of binding, NMDA ([3]; 1 μM)	% inhibition of binding, NMDA ([3]; 10 μM)	inhibition at 1 µM [4]	inhibition at 10 µM [4]	inhibition at 0.3 µM (Serotonin 5-HT1A)	inhibition at 3 µM (Serotonin 5-HT1A)	inhibition at 1 µM (Serotonin 5-HT7)	inhibition at 10 µM (Serotonin 5-HT7)	inhibition at 0.3 µM (Sigma σ1)	further results
CC[C@@H](O)C(C[C@@H](C)N)(c1ccccc1)c1ccccc1 [(3R,6R)-DNML, (3R,6R)-6-amino-4,4-diphenylheptan-3-ol]	4.7 ± 0.058	-1%	20%	4%	-4%	7%	16%	3%	9%	-7%	9%	12%	54%	4%	6%	0%	4%	12%	8%	14%	inhibition at 3 µM (Sigma σ1): 47%; pIC50 (mean ± SEM) GluN1-GluN2A [5]: 4.8 ± 0.060; pIC50 (mean ± SEM) GluN1-GluN2C [6]: 4.7 ± 0.050; inhibition at 1 µM (Muscarinic M5): -1%; inhibition at 10 µM (Muscarinic M5): 33%; pIC50 (mean ± SEM) GluN1-GluN2B [7]: 4.6 ± 0.054; inhibition at 0.3 µM (Serotonin 5-HT2A): 6%; inhibition at 3 µM (Serotonin 5-HT2A): 8%
CC[C@H](O)C(C[C@@H](C)NC)(c1ccccc1)c1ccccc1 [(3S,6R)-NML, (3S,6R)-6-(methylamino)-4,4-diphenylheptan-3-ol]	5.0 ± 0.058	10%	61%	4%	42%	15%	68%	7%	27%	2%	26%	-5%	51%	4%	9%	-1%	-4%	11%	7%	-1%	% inhibition of binding, SERT ([2]; 10 μM): displaced; pKi (mean ± SEM) [3H]diprenorphine, MOP (μ opioid receptor (MOP)): 5.55 ± 0.17; pKi (mean ± SEM) [3H]TCP, NMDA ([3]; Wistar rat cerebral cortex, 4.0 nM [3H]TCP): 5.54 ± 0.09; inhibition at 3 µM (Sigma σ1): 26%; pIC50 (mean ± SEM) GluN1-GluN2A [5]: 4.8 ± 0.050; pIC50 (mean ± SEM) GluN1-GluN2C [6]: 5.0 ± 0.049; inhibition at 1 µM (Muscarinic M5): 21%; inhibition at 10 µM (Muscarinic M5): 74%; pIC50 (mean ± SEM) GluN1-GluN2B [7]: 4.6 ± 0.047; inhibition at 0.3 µM (Serotonin 5-HT2A): -3%; inhibition at 3 µM (Serotonin 5-HT2A): 11%
